Data taken from PMC4406737, “Meroterpenoid Chrodrimanins Are Selective and Potent Blockers of Insect GABA-Gated Chloride Channels” (PLoS ONE, 2015).

How the values were obtained:
[1] = molecular target: T1, B. mori GABAR RDL (wild-type isoform, exon 3b and exon 6d) (Bombyx mori, UniProt U3TMA1); test: two-electrode voltage clamp, Xenopus oocytes, agonist concentration-response; format: cell-based
T1 construct: full cDNA in pcDNA3.1, cRNA expressed in Xenopus laevis oocytes; RDL injected alone (homomer)
T1 sequence (U3TMA1 29-482): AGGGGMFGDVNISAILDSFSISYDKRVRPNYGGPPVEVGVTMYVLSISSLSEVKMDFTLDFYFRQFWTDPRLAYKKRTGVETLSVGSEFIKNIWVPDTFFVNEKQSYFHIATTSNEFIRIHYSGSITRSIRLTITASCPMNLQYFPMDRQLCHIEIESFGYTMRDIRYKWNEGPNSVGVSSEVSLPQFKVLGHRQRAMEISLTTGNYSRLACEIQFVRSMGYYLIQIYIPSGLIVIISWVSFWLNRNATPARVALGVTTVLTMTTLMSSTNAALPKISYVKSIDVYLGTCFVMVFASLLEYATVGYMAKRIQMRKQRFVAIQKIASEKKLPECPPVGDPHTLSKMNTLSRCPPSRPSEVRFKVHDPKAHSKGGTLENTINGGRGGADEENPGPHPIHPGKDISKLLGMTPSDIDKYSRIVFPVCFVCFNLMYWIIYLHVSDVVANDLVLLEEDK

[2] = molecular target: T1, B. mori GABAR RDL (wild-type isoform, exon 3b and exon 6d); test: two-electrode voltage clamp, Xenopus oocytes, block of GABA peak current; format: cell-based

Structure (SMILES)	EC50 [1]	IC50 [2]
NCCCC(=O)O [GABA]	41.1 µM	–
N#Cc1nn(-c2c(Cl)cc(C(F)(F)F)cc2Cl)c(N)c1[S+]([O-])C(F)(F)F (centres unmarked) [fipronil]	–	0.0394 µM
